In patent US11154060B2, “Microbiocidal oxadiazole derivatives” (SYNGENTA PARTICIPATIONS AG, priority 2016, dated 2021) one finds pest or weed control, melting point and inhibition data, which are given here for 13 compounds.

In data set [1] the test system is Puccinia recondita f. sp. tritici. As to the kind of experiment: Puccinia recondita f. sp. tritici / wheat / leaf disc preventative (brown rust). Particulars: foliar, wheat leaf segments cv. Kanzler, inoculated 1 day after application, assessed 7-9 days after application, read-out: control of Puccinia recondita f. sp. tritici compared to untreated control. It is filed as in vivo. The procedure: Leaf disks or leaf segments of various plant species are cut from plants grown in a greenhouse. The cut leaf disks or segments are placed in multiwell plates (24-well format) onto water agar. The leaf disks are sprayed with a test solution before (preventative) or after (curative) inoculation. Compounds to be tested are prepared as DMSO solutions (max. 10 mg/ml) which are diluted to the appropriate concentration with 0.025% Tween20 just before spraying. The inoculated leaf disks or segments are incubated under defined conditions (temperature, relative humidity, light, etc.) according to the respective test system. A single evaluation of disease level is carried out 3 to 14 days after inoculation, depending on the pathosystem. Percent disease control relative to the untreated check leaf disks or segments is then calculated. Wheat leaf segments cv. Kanzler are placed on agar in multiwell plates (24-well format) and sprayed with the formulated test compound diluted in water. The leaf disks are inoculated with a spore suspension of the fungus 1 day after application. The inoculated leaf segments are incubated at 19° C. and 75% rh under a light regime of 12 h light/12 h darkness in a climate cabinet and the activity of a compound is assessed as percent disease control compared to untreated when an appropriate level of disease damage appears in untreated check leaf segments (7-9 days after application).

Data set [2] has as its system Glomerella lagenarium (Colletotrichum lagenarium). As to the kind of experiment: Glomerella lagenarium (Colletotrichum lagenarium) liquid culture / cucumber / preventative (anthracnose). Type of data set: cell-based. Conditions: Colletotrichum orbiculare, liquid culture in PDB, 24° C., 3-4 days after application, read-out: control of Glomerella lagenarium compared to untreated control (inhibition of growth, photometric). On the procedure: Mycelia fragments or conidia suspensions of a fungus prepared either freshly from liquid cultures of the fungus or from cryogenic storage, are directly mixed into nutrient broth. DMSO solutions of the test compound (max. 10 mg/ml) are diluted with 0.025% Tween20 by a factor of 50 and 10 μl of this solution is pipetted into a microtiter plate (96-well format). The nutrient broth containing the fungal spores/mycelia fragments is then added to give an end concentration of the tested compound. The test plates are incubated in the dark at 24° C. and 96% relative humidity. The inhibition of fungal growth is determined photometrically after 2 to 7 days, depending on the pathosystem, and percent antifungal activity relative to the untreated check is calculated. Conidia of the fungus from cryogenic storage are directly mixed into nutrient broth (PDB potato dextrose broth). After placing a (DMSO) solution of test compound into a microtiter plate (96-well format), the nutrient broth containing the fungal spores is added. The test plates are incubated at 24° C. and the inhibition of growth is measured photometrically 3-4 days after application.

Data set [3] has as its system Puccinia recondita f. sp. tritici. As to the kind of experiment: Puccinia recondita f. sp. tritici / wheat / leaf disc curative (brown rust). It is filed as in vivo. Conditions: foliar, wheat leaf segments cv. Kanzler, applied 1 day after inoculation, assessed 6-8 days after application, read-out: control of Puccinia recondita f. sp. tritici compared to untreated control. The procedure: Leaf disks or leaf segments of various plant species are cut from plants grown in a greenhouse. The cut leaf disks or segments are placed in multiwell plates (24-well format) onto water agar. The leaf disks are sprayed with a test solution before (preventative) or after (curative) inoculation. Compounds to be tested are prepared as DMSO solutions (max. 10 mg/ml) which are diluted to the appropriate concentration with 0.025% Tween20 just before spraying. The inoculated leaf disks or segments are incubated under defined conditions (temperature, relative humidity, light, etc.) according to the respective test system. A single evaluation of disease level is carried out 3 to 14 days after inoculation, depending on the pathosystem. Percent disease control relative to the untreated check leaf disks or segments is then calculated. Wheat leaf segments cv. Kanzler are placed on agar in multiwell plates (24-well format). The leaf segments are inoculated with a spore suspension of the fungus. Plates are stored in darkness at 19° C. and 75% rh. The formulated test compound diluted in water is applied 1 day after inoculation. The leaf segments are incubated at 19° C. and 75% rh under a light regime of 12 h light/12 h darkness in a climate cabinet and the activity of a compound is assessed as percent disease control compared to untreated when an appropriate level of disease damage appears in untreated check leaf segments (6-8 days after application).

The subject of a further data set is Phakopsora pachyrhizi. Description: Phakopsora pachyrhizi / soybean / leaf disc preventative (Asian soybean rust). Conditions: foliar, soybean leaf disks, inoculated one day after application, assessed 12-14 days after application, read-out: control of Phakopsora pachyrhizi compared to untreated control. Type of data set: in vivo. On the procedure: Leaf disks or leaf segments of various plant species are cut from plants grown in a greenhouse. The cut leaf disks or segments are placed in multiwell plates (24-well format) onto water agar. The leaf disks are sprayed with a test solution before (preventative) or after (curative) inoculation. Compounds to be tested are prepared as DMSO solutions (max. 10 mg/ml) which are diluted to the appropriate concentration with 0.025% Tween20 just before spraying. The inoculated leaf disks or segments are incubated under defined conditions (temperature, relative humidity, light, etc.) according to the respective test system. A single evaluation of disease level is carried out 3 to 14 days after inoculation, depending on the pathosystem. Percent disease control relative to the untreated check leaf disks or segments is then calculated. Soybean leaf disks are placed on water agar in multiwell plates (24-well format) and sprayed with the formulated test compound diluted in water. One day after application leaf discs are inoculated by spraying a spore suspension on the lower leaf surface. After an incubation period in a climate cabinet of 24-36 hours in darkness at 20° C. and 75% rh leaf disc are kept at 20° C. with 12 h light/12 h darkness and 75% rh. The activity of a compound is assessed as percent disease control compared to untreated when an appropriate level of disease damage appears in untreated check leaf disks (12-14 days after application).

The test system of a further data set is Uromyces viciae-fabae. Description: Uromyces viciae-fabae / field bean / leaf disc preventative (faba-bean rust). Type of data set: in vivo. Particulars: foliar, 288 h, 100 ppm in the applied formulation, field bean leaf discs, inoculated two hours after application, 12 days after application, read-out: disease control compared to untreated control leaf discs. On the procedure: Leaf disks or leaf segments of various plant species are cut from plants grown in a greenhouse. The cut leaf disks or segments are placed in multiwell plates (24-well format) onto water agar. The leaf disks are sprayed with a test solution before (preventative) or after (curative) inoculation. Compounds to be tested are prepared as DMSO solutions (max. 10 mg/ml) which are diluted to the appropriate concentration with 0.025% Tween20 just before spraying. The inoculated leaf disks or segments are incubated under defined conditions (temperature, relative humidity, light, etc.) according to the respective test system. A single evaluation of disease level is carried out 3 to 14 days after inoculation, depending on the pathosystem. Percent disease control relative to the untreated check leaf disks or segments is then calculated. Field bean leaf discs are placed on water agar in multiwell plates (96-well format) and 10 μl of the formulated test compound diluted in acetone and a spreader pipetted onto the leaf disc. Two hours after application leaf discs are inoculated by spraying a spore suspension on the lower leaf surface. The leaf discs are incubated in a climate cabinet at 22° C. with 18 hour day and 70% relative humidity. The activity of a compound is assessed as percent disease control compared to untreated when an appropriate level of disease damage appears in untreated check leaf disks (12 days after application).

Compound `CCONC(=O)c1ccc(-c2noc(C(F)(F)F)n2)c(F)c1` [Compound 1.13, N-ethoxy-3-fluoro-4-[5-(trifluoromethyl)-1,2,4-oxadiazol-3-yl]benzamide] registered a melting point of 139 to 144 °C. In addition, in data set [1], the pest or weed control at 200 ppm is at least 80%. Besides, in data set [2], the inhibition at 20 ppm was at least 80%.
`O=C(NOCC(F)F)c1ccc(-c2noc(C(F)(F)F)n2)c(F)c1` [Compound 1.14, N-(2,2-difluoroethoxy)-3-fluoro-4-[5-(trifluoromethyl)-1,2,4-oxadiazol-3-yl]benzamide] returned a melting point of 138 to 140 °C. In addition, the pest or weed control at 200 ppm in data set [3] was at least 80%. Further, the pest or weed control at 200 ppm in data set [1] was at least 80%. Besides, in data set [2], the inhibition at 20 ppm was at least 80%.
The compound `C=CCONC(=O)c1ccc(-c2noc(C(F)(F)F)n2)c(F)c1` [Compound 1.15, N-allyloxy-3-fluoro-4-[5-(trifluoromethyl)-1,2,4-oxadiazol-3-yl]benzamide] displayed a melting point of 132 to 136 °C. In data set [3], the pest or weed control at 200 ppm was at least 80%. In addition, the pest or weed control at 200 ppm in data set [1] was at least 80%. In data set [2], the inhibition at 20 ppm was at least 80%.
The compound `O=C(NOCc1ccccc1)c1ccc(-c2noc(C(F)(F)F)n2)c(F)c1` [Compound 1.16, N-benzyloxy-3-fluoro-4-[5-(trifluoromethyl)-1,2,4-oxadiazol-3-yl]benzamide] showed a melting point of 178 to 181 °C. For the same compound, the pest or weed control at 200 ppm in data set [3] is at least 80%. In data set [1], the pest or weed control at 200 ppm is at least 80%. Further, the pest or weed control at 200 ppm in the data set on Phakopsora pachyrhizi is at least 80%. For the same compound, the inhibition at 20 ppm in data set [2] is at least 80%.
The compound `CONC(=O)Cc1ccc(-c2noc(C(F)(F)F)n2)c(F)c1` [Compound 1.17, 2-[3-fluoro-4-[5-(trifluoromethyl)-1,2,4-oxadiazol-3-yl]phenyl]-N-methoxy-acetamide] showed a melting point of 131 to 133 °C. Further, in data set [3], the pest or weed control at 200 ppm is at least 80%. In addition, in data set [1], the pest or weed control at 200 ppm was at least 80%. Besides, in the data set on Phakopsora pachyrhizi, the pest or weed control at 200 ppm is at least 80%. The inhibition at 20 ppm in data set [2] was at least 80%.
`CONC(=O)Cc1ccc(-c2noc(C(F)(F)F)n2)cc1F` [Compound 1.20, 2-[2-fluoro-4-[5-(trifluoromethyl)-1,2,4-oxadiazol-3-yl]phenyl]-N-methoxy-acetamide]: the melting point fell in the range of 150 to 152 °C. The pest or weed control at 200 ppm in data set [3] was at least 80%. Besides, the pest or weed control at 200 ppm in data set [1] was at least 80%. The inhibition at 20 ppm in data set [2] is at least 80%.
The compound `CCONC(=O)Cc1ccc(-c2noc(C(F)(F)F)n2)cc1F` [Compound 1.21, N-ethoxy-2-[2-fluoro-4-[5-(trifluoromethyl)-1,2,4-oxadiazol-3-yl]phenyl]acetamide] showed a melting point of 81 to 83 °C. Further, the pest or weed control at 200 ppm in data set [3] is at least 80%. Further, the pest or weed control at 200 ppm in data set [1] was at least 80%. For the same compound, the inhibition at 20 ppm in data set [2] was at least 80%.
The compound `O=C(Cc1ccc(-c2noc(C(F)(F)F)n2)cc1F)NOCC(F)F` [Compound 1.23, N-(2,2-difluoroethoxy)-2-[2-fluoro-4-[5-(trifluoromethyl)-1,2,4-oxadiazol-3-yl]phenyl]acetamide] yielded a melting point of 114 to 116 °C. Besides, the pest or weed control at 200 ppm in data set [3] is at least 80%. In addition, the pest or weed control at 200 ppm in data set [1] was at least 80%. Further, the inhibition at 20 ppm in data set [2] is at least 80%.
`COC(=O)CN(OC)C(=O)c1ccc(-c2noc(C(F)(F)F)n2)cc1` [Compound 2.8, methyl 2-[methoxy-[4-[5-(trifluoromethyl)-1,2,4-oxadiazol-3-yl]benzoyl]amino]acetate]: the pest or weed control at 200 ppm (in data set [3]; in data set [1]; in the data set with Phakopsora pachyrhizi) was at least 80% throughout. For the same compound, the pest or weed control at 100 ppm in the data set with Uromyces viciae-fabae is at least 80%. For the same compound, the inhibition at 20 ppm in data set [2] is at least 80%.
For the compound `C=CCN(OC)C(=O)c1ccc(-c2noc(C(F)(F)F)n2)cc1` [Compound 2.10, N-allyl-N-methoxy-4-[5-(trifluoromethyl)-1,2,4-oxadiazol-3-yl]benzamide], the pest or weed control at 200 ppm (in data set [3]; in data set [1]; with Phakopsora pachyrhizi) was at least 80% in each case. Besides, the pest or weed control at 100 ppm with Uromyces viciae-fabae is at least 80%. Moreover, the inhibition at 20 ppm in data set [2] was at least 80%.
`C=CCONC(=O)Cc1ccc(-c2noc(C(F)(F)F)n2)cc1` [Compound 2.14, N-allyloxy-2-[4-[5-(trifluoromethyl)-1,2,4-oxadiazol-3-yl]phenyl]acetamide] had a melting point of 153 to 158 °C. The pest or weed control at 200 ppm in data set [1] was at least 80%. In data set [2], the inhibition at 20 ppm was at least 80%.
In turn, `O=C(Cc1ccc(-c2noc(C(F)(F)F)n2)cc1)NOCc1ccccc1` [Compound 2.15, N-benzyloxy-2-[4-[5-(trifluoromethyl)-1,2,4-oxadiazol-3-yl]phenyl]acetamide] registered a melting point of 135 to 138 °C. Besides, the pest or weed control at 200 ppm in data set [1] was at least 80%. In data set [2], the inhibition at 20 ppm was at least 80%.
In turn, `O=C(NOCC(F)F)c1ccc(-c2noc(C(F)(F)F)n2)cc1` [Compound 2.18, N-(2,2-difluoroethoxy)-4-[5-(trifluoromethyl)-1,2,4-oxadiazol-3-yl]benzamide] came in with a melting point of 134 to 137 °C. In data set [3], the pest or weed control at 200 ppm is at least 80%. Besides, the pest or weed control at 200 ppm in data set [1] was at least 80%. In addition, the inhibition at 20 ppm in data set [2] is at least 80%.

As usually defined, the melting point is the temperature of the solid-liquid transition. The term inhibition denotes the drop in the measured response relative to a control, in per cent.
